What all share (assay): SelectScreen Kinase Profiling, single point inhibition and IC50 for off-target kinases
Holding throughout (assay type): biochemical

For assay [1], the target named is T1, off-target kinases (Homo sapiens, UniProt Q15139).
T1 sequence (Q15139 1-912): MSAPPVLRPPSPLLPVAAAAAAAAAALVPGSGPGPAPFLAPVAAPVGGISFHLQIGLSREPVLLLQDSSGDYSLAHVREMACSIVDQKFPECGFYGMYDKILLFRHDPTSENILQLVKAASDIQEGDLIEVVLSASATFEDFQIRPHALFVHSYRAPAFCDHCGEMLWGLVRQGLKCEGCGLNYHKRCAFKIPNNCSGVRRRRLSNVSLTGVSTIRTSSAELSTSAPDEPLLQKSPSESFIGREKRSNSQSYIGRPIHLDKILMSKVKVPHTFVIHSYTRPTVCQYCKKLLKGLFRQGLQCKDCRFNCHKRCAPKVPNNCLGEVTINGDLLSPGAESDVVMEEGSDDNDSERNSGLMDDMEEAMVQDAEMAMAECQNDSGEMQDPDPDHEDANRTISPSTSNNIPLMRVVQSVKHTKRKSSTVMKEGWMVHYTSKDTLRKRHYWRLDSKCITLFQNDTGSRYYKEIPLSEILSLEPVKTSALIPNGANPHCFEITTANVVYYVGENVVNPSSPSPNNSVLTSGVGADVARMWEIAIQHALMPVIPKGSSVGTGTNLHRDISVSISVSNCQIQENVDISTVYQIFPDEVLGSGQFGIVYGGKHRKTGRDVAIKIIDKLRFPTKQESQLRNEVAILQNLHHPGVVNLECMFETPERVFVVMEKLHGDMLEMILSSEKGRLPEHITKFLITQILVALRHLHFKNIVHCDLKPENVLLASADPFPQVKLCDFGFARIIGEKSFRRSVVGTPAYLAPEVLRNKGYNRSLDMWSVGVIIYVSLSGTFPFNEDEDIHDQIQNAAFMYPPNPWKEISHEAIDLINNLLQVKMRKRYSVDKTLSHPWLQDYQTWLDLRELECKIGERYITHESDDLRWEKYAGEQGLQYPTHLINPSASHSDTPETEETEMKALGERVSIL
The conditions noted are these: PRKD1 (PKC mu), ATP Km app, ZLYTE.

Assay [2] concerns the target off-target kinases (Homo sapiens, UniProt P53350). As to conditions: PLK1, ZLYTE, ATP Km app.
The target of assay [3] is T2, off-target kinases (Homo sapiens, UniProt Q9NRA0).
T2 sequence (Q9NRA0 1-654): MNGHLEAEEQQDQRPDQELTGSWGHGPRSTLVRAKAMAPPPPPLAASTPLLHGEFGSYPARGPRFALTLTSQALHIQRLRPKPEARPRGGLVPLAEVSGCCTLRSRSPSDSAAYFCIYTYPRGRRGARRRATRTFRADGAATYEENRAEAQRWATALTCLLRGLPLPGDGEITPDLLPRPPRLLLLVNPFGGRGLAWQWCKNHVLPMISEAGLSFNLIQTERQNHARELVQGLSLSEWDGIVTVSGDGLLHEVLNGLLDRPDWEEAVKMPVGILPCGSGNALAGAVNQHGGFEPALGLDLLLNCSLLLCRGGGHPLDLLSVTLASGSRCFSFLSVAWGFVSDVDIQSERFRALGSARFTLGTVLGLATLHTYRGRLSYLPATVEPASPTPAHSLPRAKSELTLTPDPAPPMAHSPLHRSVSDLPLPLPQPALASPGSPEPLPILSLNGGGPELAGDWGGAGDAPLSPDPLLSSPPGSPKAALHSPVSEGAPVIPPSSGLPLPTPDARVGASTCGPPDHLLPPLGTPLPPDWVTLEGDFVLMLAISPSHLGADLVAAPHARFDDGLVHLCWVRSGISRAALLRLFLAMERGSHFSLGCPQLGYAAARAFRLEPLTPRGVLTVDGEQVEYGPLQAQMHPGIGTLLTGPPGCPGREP
The conditions noted are these: SPHK2; Cmpd1 1000 μM; ATP 10; Adapta.

For assay [4], the target named is off-target kinases (Homo sapiens, UniProt P07949, V804M). As to conditions: RET V804M, mutant y, LanthaScreen Binding.

Like-named read-outs stand apart in the source and are kept apart here.

As usually defined, the inhibition is the change of the read-out against control, counted positive when it falls.

Sequence of off-target kinases (Homo sapiens, UniProt P53350) (P53350 whole entry): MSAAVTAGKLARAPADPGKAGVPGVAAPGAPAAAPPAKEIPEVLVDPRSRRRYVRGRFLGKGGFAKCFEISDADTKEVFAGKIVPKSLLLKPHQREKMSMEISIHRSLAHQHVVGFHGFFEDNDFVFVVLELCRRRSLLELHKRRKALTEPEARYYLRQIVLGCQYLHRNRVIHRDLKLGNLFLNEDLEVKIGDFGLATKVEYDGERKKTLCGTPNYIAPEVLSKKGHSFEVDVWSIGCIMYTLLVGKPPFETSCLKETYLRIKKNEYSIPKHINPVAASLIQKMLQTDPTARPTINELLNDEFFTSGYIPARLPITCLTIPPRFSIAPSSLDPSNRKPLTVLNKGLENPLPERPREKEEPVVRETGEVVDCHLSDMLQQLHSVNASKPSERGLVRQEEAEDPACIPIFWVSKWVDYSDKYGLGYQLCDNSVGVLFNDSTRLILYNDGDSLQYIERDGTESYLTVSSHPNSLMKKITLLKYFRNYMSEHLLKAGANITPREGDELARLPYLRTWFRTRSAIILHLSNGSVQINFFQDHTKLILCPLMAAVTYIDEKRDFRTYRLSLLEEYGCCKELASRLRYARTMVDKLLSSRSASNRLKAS
Sequence of off-target kinases (Homo sapiens, UniProt P07949, V804M) (P07949 29-1114 V804M): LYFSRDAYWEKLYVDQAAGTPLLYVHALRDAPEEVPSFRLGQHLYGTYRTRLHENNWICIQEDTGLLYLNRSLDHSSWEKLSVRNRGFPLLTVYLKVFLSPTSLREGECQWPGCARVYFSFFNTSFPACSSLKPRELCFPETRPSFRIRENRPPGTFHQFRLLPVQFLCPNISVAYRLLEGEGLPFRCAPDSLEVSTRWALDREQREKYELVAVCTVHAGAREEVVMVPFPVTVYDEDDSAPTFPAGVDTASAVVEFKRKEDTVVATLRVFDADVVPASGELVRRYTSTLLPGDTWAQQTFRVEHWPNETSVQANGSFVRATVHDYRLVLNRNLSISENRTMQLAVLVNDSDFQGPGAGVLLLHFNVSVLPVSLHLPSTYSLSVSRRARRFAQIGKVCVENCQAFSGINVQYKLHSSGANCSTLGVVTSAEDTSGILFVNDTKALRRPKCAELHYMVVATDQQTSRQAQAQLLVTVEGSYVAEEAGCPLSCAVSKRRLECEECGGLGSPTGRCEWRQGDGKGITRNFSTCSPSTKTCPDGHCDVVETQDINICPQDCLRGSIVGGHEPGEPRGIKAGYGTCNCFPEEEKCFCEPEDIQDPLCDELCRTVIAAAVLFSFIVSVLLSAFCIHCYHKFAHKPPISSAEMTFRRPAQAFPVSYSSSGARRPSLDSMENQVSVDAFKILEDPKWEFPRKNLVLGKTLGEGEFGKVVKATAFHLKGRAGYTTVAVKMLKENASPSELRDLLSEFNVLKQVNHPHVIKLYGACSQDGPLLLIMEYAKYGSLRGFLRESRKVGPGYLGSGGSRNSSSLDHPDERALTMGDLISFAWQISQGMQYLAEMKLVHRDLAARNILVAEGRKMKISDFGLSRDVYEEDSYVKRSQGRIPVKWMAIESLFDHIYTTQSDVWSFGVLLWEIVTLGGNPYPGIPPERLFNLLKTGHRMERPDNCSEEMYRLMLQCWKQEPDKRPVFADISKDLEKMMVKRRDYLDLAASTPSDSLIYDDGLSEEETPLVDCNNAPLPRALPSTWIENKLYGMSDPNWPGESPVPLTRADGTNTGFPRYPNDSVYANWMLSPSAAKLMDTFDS

Regarding `N#Cc1cc(-c2ncnc(Nc3ccc(N4CCN(C5COC5)CC4)cc3)n2)ccc1OC1CCOCC1` [Compound 1, 5-(4-((4-(4-(oxetan-3-yl)piperazin-1-yl)phenyl)amino)-1,3,5-triazin-2-yl)-2-((tetrahydro-2H-pyran-4-yl)oxy)benzonitrile], the inhibition in assay [1] (read-out: % Inhibition 1) amounted to 100%; in assay [1] (read-out: % Inhibition 2), 95%; in assay [1] (read-out: % Inhibition Avg), 98%; in assay [2] (read-out: % Inhibition 1) it was 12%; in assay [2] (read-out: % Inhibition 2), 9%; in assay [2] (read-out: % Inhibition Avg), 11%. Moreover, the inhibition was determined as 35% in assay [4] (read-out: % Inhibition 1), 31% in assay [4] (read-out: % Inhibition 2) and 33% in assay [4] (read-out: % Inhibition Avg). In addition, the “% Inhibition 1” value in assay [3] is on record as −16%. Moreover, the “% Inhibition 2” value in assay [3] is reported as −2%. For the same molecule, in assay [3], the “% Inhibition Avg” value is listed as −9%.

The record behind these values is patent publication US11572590B2, “Methods for evaluating tumor cell spheroids using 3D microfluidic cell culture device” (Dana-Farber Cancer Institute, Inc., priority 2017, dated 2023).
